Laboratory results: US6350744B1, “Compounds having cytokine inhibitory activity” (Merck & Co., Inc., priority 1998, dated 2002)

| Compound | melting point [°C] |
| --- | --- |
| CN1CCC(c2cc(-c3ccncc3)c(-c3cccc(C(F)(F)F)c3)nn2)CC1 [Example 11, 3-(3-trifluoromethylphenyl)-4(pyridine-4-yl)-6-(N-methylpiperidin-4-yl)pyridazine] | 188 to 189 |
| FC(F)(F)c1cccc(-c2cc(C3CCNCC3)nnc2-c2ccncc2)c1 [Example 28, 3-(pyridine-4-yl)-4-(3-trifluoromethylphenyl)-6-(piperidin-4-yl)pyridazine] | 148 to 150 |
